Consider 18 molecules from patent US4007210A, “Novel 3-triphenylmethoxy-1-alkynes, 3-triphenylmethoxy-1-trans-alkenyl-dialkyl-alanes, and lithium 3-triphenyl-methoxy-1-trans-alkenyl-dialkyl-alanates” (American Cyanamid Company, priority 1975, dated 1977).

Assay [1] relates to diastolic blood pressure. Description: hypotensive activity in anesthetized rats. The class given is in vivo, Male Wistar strain rats. The note with it: intravenous, minimal dose for a decrease of about 10 mm. in diastolic blood pressure; for minimal effective dose: Rattus norvegicus. The procedure: This procedure is a modification of the technique described by Pike et al., Prostaglandins, Nobel Symposium 2, Stockholm, June, 1966; p. 165.
Male Wistar strain rats (Royal Hart Farms) averaging approximately 250 grams in weight were fastened to rat boards in a supine position by means of canvas vests and limb ties. The femoral area was infiltrated subcutaneously with lidocaine and the iliac artery and vein were exposed and cannulated. Arterial blood pressure (systolic/diastolic) was recorded using a Statham P23 Db pressure, the animals were anethetized before use with pentobarbital, 30 mg./kg. of body weight intravenously, and also were given hexamethoxium bitartrate, 2 mg/kg. of body weight intravenously. The test compounds were prepared by ultrasonic dispersion in a saline-Tween 80 vehicle. A constant intravenous dose volume of 0.5 ml. was administered and test doses ranged from 0.1 to 10.0 mg./kg. of body weight. Increasing or decreasing doses were selected depending on the dose response obtained. In Table 2B below are set forth the minimal doses required to produce a decrease of about 10 mm. in diastolic blood pressure for typical compounds of the present invention.

Assay [2] relates to indomethacin ulcers of the stomach. In words: protection against the ulcerogenic properties of indomethacin (ulcer score). The class given is in vivo, rats. The note with it: 2.5 or lower = active. The procedure:
The compounds of this invention provide protection against the ulcerogenic properties of indomethacin. This assay was carried out in the following manner.
Rats were starved for 48 hours (water was given ad libitum). Indomethacin (20 mg./kg. of body weight) was administered by the subutaneous route and one-half the dose of the test compound was administered by gavage at the same time. After three hours, the second half of the test compound was administered also by Gavage. Five hours after the administration of indomethacin the animals were decapitated and the stomachs removed. The stomachs were washed with distilled water, blotted on gauze, cut along the larger curvature, and the contents rinsed with distilled water. The stomachs were spread out, pinned on a cork and visualized under magnifying glass for ulcers. The criteria for scoring of ulcers was as previously reported. [Abdel-Galil et al. Brit. J. Pharmac. Chemotherapy 33:1-14 (1968)].
1 Petechial hemorrhage or pin point ulcer
3 Many ulcers, a few large
4 Many ulcers, mainly large
Control animals treated with indomethacin but not test compound consistently give scores of about 3.0-3.5. Control animals treated with neither indomethacin nor test compound give scores of about 0.5-0.8. Compounds producing a score of 2.5 or lower are considered to be active.

Assay [3] has as its system gastric acid secretion. Description: gastric acid secretion inhibition, "Shay rat" procedure. The class given is in vivo, rats (male, CFE strain). The note with it: intraduodenal dose 100 mg./kg. of body weight; 3 hours; 20% or more = active. The procedure:
The novel compounds of the present invention are also effective inhibitors of gastric acid secretion and of ulcer development in experimental animals, and thus are potentially valuable as agents for the control of gastric acid secretion and of gastric erosion and as anti-ulcer agents. Gastric acid secretion inhibitory action is usually measured by the "Shay rat" procedure ^(1,2) with some modifications as follows.
The rats (male, CFE strain) were starved for 48 hours (water was given ad libitum) to permit evacuation of stomach contents. On the morning of the experiment, under ether anesthesia, the abdominal region was shaved and a midline incision (1-1 1/2 in.) was made with a scapel. With the help of a closed curved hemostate the duodenum was picked up. […]
The test compound or the vehicle, usually […], were injected into the duodenum as close as possible to the first ligature. […] The supernatant was collected, volume measured and recorded, 2 drops of a phenolphthalein indicator (1% in 95% ethanol) were added and the solution was titrated with 0.02N NaOH (or with 0.04N NaOH when large volumes of stomach contents were encountered) to pH 8.4 (because of usual coloring of the stomach contents, phenolphthalein was only used to permit visual indication that the end point was near) and the amount of acid present was calculated. […]

Assay [4] has as its system bronchospasms elicited by 5-hydroxytryptamine. Description: bronchodilator activity, Konzett procedure, 5-hydroxytryptamine. The class given is in vivo, guinea pigs. The conditions noted are these: Cavia porcellus; three logarithmic cumulative intravenous doses; spasmogen 5-hydroxytryptamine; read-out: Bronchodilator Activity (Konzett Assays) ED50, 5-hydroxytryptamine. On the procedure:
(§1) Bronchodilator activity was determined in guinea pigs against bronchospasms elicited by intravenous injections of 5-hydroxytryptamine, histamine or acetylcholine by the Konzett procedure. [See J. Lulling, P. Lievens, F. El Sayed and J. Prignot, Arzeimittel-Forschung, 18 995 (1968).]
(§2) In the table which follows bronchodilator activity for representative compounds of this invention against one or more of the three spasmogenic agents is expressed as an ED50 determined from the results obtained with three logarithemic cumulative intravenous doses.

For assay [5], the system named is bronchospasms elicited by acetylcholine. Description: bronchodilator activity, Konzett procedure, acetylcholine. The conditions noted are these: Cavia porcellus; three logarithmic cumulative intravenous doses; column head printed choline; read-out: Bronchodilator Activity (Konzett Assays) ED50, choline. The class given is in vivo, guinea pigs. On the procedure:
as §1, §2

The subject of assay [6] is bronchospasms elicited by histamine. Description: bronchodilator activity, Konzett procedure, histamine. The class given is in vivo, guinea pigs. The note with it: Cavia porcellus; three logarithmic cumulative intravenous doses; spasmogen histamine; read-out: Bronchodilator Activity (Konzett Assays) ED50, histamine. On the procedure: as §1, §2
[7] abbreviates: total oral dose 25 mg./kg. of body weight, control score 3.2, scale 0 (normal stomach) to 4 (many ulcers, mainly large).

In the case of `CCCCC[C@H](O)/C=C/[C@H]1CCC(=O)[C@@H]1CCCCOCC(=O)O` (relative stereo) [3-oxa-9-oxo-15-hydroxy-13-trans-prostenoic acid], in assay [1], the minimal effective dose was under 2 mg/kg.
With `CCCCC[C@@H](O)/C=C/[C@H]1CCC(=O)[C@@H]1CCCCSCC(=O)O` (relative stereo) [9-oxo-3-thia-15-epi-hydroxy-13-trans-prostenoic acid], in assay [1], the minimal effective dose is 2 mg/kg. In addition, the “Score, Treated” value in assay [2] (setting [7]) came to 2.3.
Turning to `CCCCC[C@H](O)/C=C/[C@H]1CCC(=O)[C@@H]1CCCCSCC(=O)O` (relative stereo) [9-oxo-3-thia-15-hydroxy-13-trans-prostenoic acid], in assay [1], the minimal effective dose was found to be 2 mg/kg.
On the same count and under the same terms, the same measure for `CCCCC[C@@H](O)/C=C/[C@H]1CCCC(=O)[C@@H]1CCCCCCC(=O)O` (relative stereo) [9-oxo-10a-homo-15-epi-hydroxy-13-trans-prostenoic acid]: 2 mg/kg.
In the case of `CCCCC[C@H](O)/C=C/[C@H]1CCCC(=O)[C@@H]1CCCCCCC(=O)O` (relative stereo) [9-oxo-10a-homo-15-hydroxy-13-trans-prostenoic acid], the minimal effective dose in assay [1] is 2 mg/kg.
Take `CCCCCC(O)/C=C/[C@H]1CCC(=O)[C@@H]1CCCCC(C)(C)CC(=O)O` (relative stereo) [9-oxo-15-hydroxy-3,3-dimethyl-13-trans-prostenoic acid]: the “Percent Inhibition (gastric acid secretion)” value in assay [3] is recorded as 51%.
With `CCCCCC(O)/C=C\[C@H]1CCC(=O)[C@@H]1CCCCCCC(=O)O` (relative stereo) [9-oxo-15-hydroxy-13-cis-prostenoic acid, 15-hydroxy-9-oxo-13-cis-prostenoic acid], the ED50 in assay [4] was determined as 0.000106 mg/kg. In assay [2] (total oral dose 100 mg./kg. of body weight, control score 3.0, scale 0-4), the “Score, Treated” value is reported as 1.3.
The molecule `CCCCC[C@@H](O)/C=C/[C@H]1CCC(=O)[C@@H]1CCCCOCC(=O)OCC` (relative stereo) [Ethyl 3-oxa-9-oxo-15-epi-hydroxy-13-trans-prostenoate] had a minimal effective dose in assay [1] of 0.2 mg/kg.
On the same count and under the same terms, the same measure for `CCCCC[C@H](O)/C=C/[C@H]1CCC(=O)[C@@H]1CCCCOCC(=O)OCC` (relative stereo) [Ethyl 3-oxa-9-oxo-15-hydroxy-13-trans-prostenoate]: 0.2 mg/kg; for `CCCCC[C@@H](O)/C=C/[C@H]1CCC(=O)[C@@H]1CCCCCC(C)C(=O)O` (stereo partly drawn) [2-methyl-9-oxo-15-epi-hydroxy-13-trans-prostenoic aid]: 2 mg/kg.
On the same count and under the same terms, in the case of `CCCCC[C@H](O)/C=C/[C@H]1CCC(=O)[C@@H]1CCCCCC(C)C(=O)O` (stereo partly drawn) [2-methyl-9-oxo-15-hydroxy-13-trans-prostenoic acid] it was 2 mg/kg; in that of `CCCCC[C@H](O)/C=C/[C@H]1CCC(=O)[C@@H]1CCCCCC(C(=O)O)c1ccccc1` (stereo partly drawn) [2-phenyl-9-oxo-15-hydroxy-13-trans-prostenoic acid], 8 mg/kg.
Regarding `CCCCCC(O)/C=C/C1CCC(=O)C1(C)CCCCCCC(=O)O` (stereo not drawn) [9-oxo-8β-methyl-15-hydroxy-13-trans-prostenoic acid], the “Minimal effective hypotensive dose” value in assay [1] is 2 mg./kg. of body wt. For the same molecule, in assay [2] (total oral dose 12.5 mg./kg. of body weight, control score 3.0, scale 0-4), the “Score, Treated” value was 2.0.
With `CCCCC[C@H](O)/C=C/[C@H]1CCC(=O)[C@@H]1CCCCCC(CC)C(=O)O` (stereo partly drawn) [9-oxo-15-hydroxy-2-ethyl-13-trans-prostenoic acid], the ED50 in assay [5] is 0.000533 mg/kg; in assay [6], 0.000145 mg/kg; in assay [4], 0.000329 mg/kg. The molecule also displayed a minimal effective dose in assay [1] of under 2 mg/kg. Moreover, the “Score, Treated” value in assay [2] (total oral dose 50 mg./kg. of body weight, control score 3.0, scale 0-4) was found to be 2.2.
Turning to `CC/C=C\CC(O)/C=C/C1CCC(=O)C1C/C=C\CCCC(=O)O` (stereo not drawn) [9-oxo-15-hydroxy-5-cis,13-trans,17-cis-prostatrienoic acid], the “Minimal effective hypotensive dose” value in assay [1] was < 2 mg./kg. of body wt.
Still for that read-out and setting: the same measure for `CC/C=C\CC(C)(O)/C=C/C1CCC(=O)C1C/C=C\CCCC(=O)O` (stereo not drawn) [9-oxo-15-hydroxy-15-methyl-5-cis,13-trans,17-cis-prostatrienoic acid]: < 2 mg./kg. of body wt.
Take `CCCCC(CC)C(O)/C=C/[C@H]1CCC(=O)[C@@H]1CCCCCCC(=O)O` (stereo partly drawn) [9-oxo-15-hydroxy-16-ethyl-13-trans-prostenoic acid]: the “Score, Treated” value in assay [2] (setting [7]) was determined as 1.7.
In the case of `CCCC#CC(O)CC[C@H]1CCC(=O)[C@@H]1CCCCCCC(=O)O` (stereo partly shown) [9-oxo-15-hydroxy-16-prostynoic acid], in assay [5], the ED50 was determined as 0.00032 mg/kg.

The minimal effective dose is the lowest level tested that produced the effect sought. Broadly, the ED50 is the midpoint of the dose-response relation.
